{"source": "patent US20250154193A1", "about": "“STEROID COMPOUND, AND PREPARATION METHOD THEREFOR AND APPLICATION THEREOF” (CHOLESGEN (SHANGHAI) CO., LTD., priority 2022, published 2025)", "key": {"liver organoids": {"system": "liver organoids", "experiment": "Nile Red and αSMA immunofluorescence staining of fatty liver organoids", "type": "cell-based, mice", "settings": "mouse fatty liver organoids, 1 and 3 μM, 72 hours", "description": "C57BL/6N mice were fed with fatty liver-inducing diet (TrophicDiet, TP2630052A, containing 10.2% kcal protein, 37.3% kcal carbohydrate, and 52.6% kcal fat) and fructose-containing drinking water (23.1 g of fructose and 18.9 g of dextrose were dissolved in 1 L of water, then filtered and sterilized) for a total of 16 weeks starting at 12 weeks of age to generate a fatty liver model. To generate fatty liver organoids, liver tissues from mice with fatty liver were minced and digested in digestion buffer at 37° C. for 30 to 60 minutes. The digestion buffer included DMEM/F-12 (Cytiva, SH30023.01), 2.5 mg/mL collagenase D (Roche, COLLD-RO), and 0.1 mg/mL DNaseI (Sigma-Aldrich, DN25). Isolated single hepatocytes were filtered through a 70 μm filter membrane and washed once. Cells were collected by centrifugation, and resuspended in a mixture of culture medium and basement membrane extract (BME) (R&D Systems, 3533-010-02) at a ratio of 1:3. […]\nIn FIGS. 35 and 36, data are represented as mean±standard deviation. P values were calculated using one-way ANOVA; ns indicates no statistical difference; * indicates P<0.05; ** indicates P<0.01; *** indicates P<0.001. In FIGS. 47 and 53, quantitative analysis was performed using ImageJ software. […] P values were calculated using one-way ANOVA; * indicates P<0.05; ** indicates P<0.01; *** indicates P<0.001."}, "Ldlr−/− mice": {"system": "Ldlr−/− mice", "experiment": "AMLN diet-induced fatty liver model: body weight, serum and liver metabolic parameters", "type": "in vivo", "settings": "30 mg/kg/day intragastrically, 8 weeks", "source_text": "Animals: Adult male C57BL/6J mice were purchased from Shanghai SLAC, and low-density lipoprotein receptor knockout mice (Ldlr^−/− mice, T001464) were purchased from Jiangsu GemPharmatech Co., Ltd. Mice were housed in an environment free of pathogens, maintained in a 12-hour light/dark cycle, and had free access to water and feed. The vehicle for oral gavage was 0.5% Tween-80, 0.5% methylcellulose, and 0.9% sodium chloride. AMLN feed (AMLN, Dyets) contains 40% (kcal %) fat (80% of which is trans fat), 22% (mass %) fructose, and 2% (mass %) cholesterol.\nAfter drug treatment, mice were fasted for 4 hours before being euthanized, and blood and liver samples were collected. Blood was coagulated and centrifuged at 1,500 g for 10 minutes at 4° C. to obtain the supernatant (i.e., serum). Lipids from liver were extracted using the chloroform/methanol method. The samples were first homogenized and crushed using a Precelly 24 homogenizer, and centrifuged at 16,000 g for 10 minutes at 4° C. The organic phase was transferred to a new tube, dried with nitrogen, and dissolved in ethanol. Total cholesterol and triglyceride levels in blood and liver were measured by cholesterol and triglyceride kits (Shanghai Kehua Bio-Engineering Co., Ltd.), respectively. ALT (LE-M0477, Lai Er Bio-Tech) and AST (LE-M0568, Lai Er Bio-Tech) levels in serum were measured according to the corresponding manufacturer's manuals, using an analytical system from Sysmex Shanghai Ltd.\nMale C57BL/6J mice and male Ldlr^−/− mice (TOO1464, Jiangsu GemPharmatech Co., Ltd.) at 8 weeks of age were purchased, grouped, fed with different diets, and treated with different drugs. The mice were randomly divided into 4 groups with 8 to 9 mice in each group: One group consisted of C57BL/6J wild-type mice, which was the chow diet (CD) vehicle control group. The other three groups consisted of Ldlr^−/− knockout mice, including chow diet (CD) vehicle control group, AMLN diet (containing […], 22% fructose, and 2% cholesterol) vehicle control group, and AMLN diet combined with 25-hydroxylanosterol administration group (25-hydroxylano sterol was administered at a concentration of 30 mg/kg/day). The mice in four groups were intragastrically administered once a day, during which the changes in food intake and body weight of the mice in different treatment groups were counted. After 8 weeks, blood and liver samples were collected from the mice to analyze blood lipids, liver lipids, and liver damage phenotypes.\nIn FIGS. 1 and 2, P values were calculated using the statistical analysis of two-way ANOVA (Dunnett's multiple comparisons test); * indicates P<0.05; ns indicates no statistical difference. In FIGS. 3 to 8, data are represented as mean±standard deviation. P values were calculated using one-way ANOVA; * indicates P<0.05; ** indicates P<0.01; *** indicates P<0.001."}}, "data": [{"smiles": "C[C@H](CCCC(C)(C)O)[C@H]1CC[C@@]2(C)C3=C(CC[C@]12C)[C@@]1(C)CC[C@H](O)C(C)(C)[C@@H]1CC3", "note": "[compound 68, (1R,3aR,5aR,7S,9aS,11aR)-1-[(2R)-6-hydroxy-6-methylheptan-2-yl]-3a,6,6,9a,11a-pentamethyl-2,3,3a,4,5,5a,6,7,8,9,9a,10,11,11a-tetradecahydro-1H-cyclopenta[1,2-a]phenanthren-7-ol]", "values": [{"measurement": "expression of fibrosis marker protein αSMA (immunofluorescence staining)", "setting": "liver organoids", "value": "decreasing"}, {"measurement": "lipid accumulation in organoids (Nile Red staining)", "setting": "liver organoids", "value": "reduced"}, {"measurement": "alanine aminotransferase (ALT) in serum", "setting": "Ldlr−/− mice", "value": "significantly reduced"}, {"measurement": "aspartate aminotransferase (AST) in serum", "setting": "Ldlr−/− mice", "value": "significantly reduced"}, {"measurement": "total liver cholesterol levels", "setting": "Ldlr−/− mice", "value": "significantly reduced"}, {"measurement": "total liver triglyceride levels", "setting": "Ldlr−/− mice", "value": "significantly reduced"}, {"measurement": "AMLN diet-induced weight gain", "setting": "Ldlr−/− mice; vs AMLN diet vehicle control", "value": "significantly lower"}, {"measurement": "total cholesterol levels in serum", "setting": "Ldlr−/− mice; vs control group", "value": "significantly reduced"}, {"measurement": "total triglyceride levels in serum", "setting": "Ldlr−/− mice; vs control group", "value": "significantly reduced"}]}]}
